Measured values as given in publication PMC10184535, “An HR2-Mimicking Sulfonyl-γ-AApeptide Is a Potent Pan-coronavirus Fusion Inhibitor with Strong Blood–Brain Barrier Permeability, Long Half-Life, and Promising Oral Bioavailability” (ACS Central Science, 2023).

System: authentic SARS-CoV-2 Delta variant
Details: 48 h

CC[C@H](C)[C@H](NC(=O)[C@H](C)NC(=O)[C@H](CCC(=O)O)NC(=O)[C@H](CCC(=O)O)NC(=O)[C@H](CC(C)C)NC(=O)[C@H](CCCCN)NC(=O)[C@H](CCCCN)NC(=O)[C@H](CCSC)NC(=O)[C@H](CCC(=O)O)NC(=O)[C@H](Cc1ccc(O)cc1)NC(=O)[C@H](CCC(=O)O)NC(=O)[C@H](CC(C)C)NC(=O)[C@H](CC(=O)O)NC(=O)[C@H](CC(C)C)NC(=O)[C@H](Cc1ccccc1)NC(=O)[C@@H](NC(=O)[C@@H](NC(=O)[C@H](CC(N)=O)NC(=O)[C@@H](NC(=O)[C@H](CCC(N)=O)NC(=O)[C@H](CC(=O)O)NC(=O)[C@H](CC(C)C)NC(=O)[C@@H](N)CO)[C@@H](C)CC)C(C)C)[C@@H](C)O)C(=O)N[C@@H](CCCCN)C(=O)N[C@@H](CCCCN)C(=O)N[C@@H](CC(C)C)C(=O)N[C@@H](CCC(=O)O)C(=O)N[C@@H](CCC(=O)O)C(=O)N[C@@H](CO)C(=O)N[C@@H](Cc1ccc(O)cc1)C(=O)N[C@H](C(=O)N[C@@H](CC(=O)O)C(=O)N[C@@H](CC(C)C)C(=O)N[C@@H](CCCCN)C(=O)N[C@@H](CCC(=O)O)C(=O)N[C@@H](CC(C)C)C(=O)O)[C@@H](C)CC [EK1]
IC50: 2860 nM
